Assay [1] deals with Programmed cell death 1 ligand 1 (Homo sapiens, UniProt Q9NZQ7, H140E). As to the kind of experiment: Binding affinity to human 15N-labelled 6His-tagged PDL1 IgV domain H140E mutant (18 to 134 residues) expressed in Escherichia coli BL21 (DE3) by 1D-1H NMR spectroscopy.
The test system of assay [2] is Programmed cell death 1 ligand 1 (Homo sapiens), Q9NZQ7 [UNDEFINED MUTATION]. As to the kind of experiment: Displacement of 15N-labelled PD1 from human 15N-labelled 6His-tagged PDL1 IgV domain H140E mutant (18 to 134 residues) at 800 uM assessed as rescue signal intensity by HMQC spectra analysis.
Sequence of Programmed cell death 1 ligand 1 (Homo sapiens), Q9NZQ7 [UNDEFINED MUTATION] (Q9NZQ7 whole entry, looked up, stated change not applied, the tested form may be a part): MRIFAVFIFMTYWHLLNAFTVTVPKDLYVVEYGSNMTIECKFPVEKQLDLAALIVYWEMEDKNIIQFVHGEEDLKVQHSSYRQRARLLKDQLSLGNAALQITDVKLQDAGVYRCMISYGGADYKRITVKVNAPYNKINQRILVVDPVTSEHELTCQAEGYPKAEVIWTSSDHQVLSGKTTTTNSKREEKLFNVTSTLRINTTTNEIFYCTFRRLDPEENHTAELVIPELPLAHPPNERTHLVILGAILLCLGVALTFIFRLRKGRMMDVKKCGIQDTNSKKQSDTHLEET
For assay [3] the test system is unchanged. Kind of assay: Displacement of 15N-labelled PD1 from human 15N-labelled 6His-tagged PDL1 IgV domain H140E mutant (18 to 134 residues) at 2 mM assessed as rescue signal intensity by HMQC spectra analysis.

Sequence of Programmed cell death 1 ligand 1 (Q9NZQ7 whole entry, looked up, stated change not applied, the tested form may be a part): as above

With `CC(=O)Oc1ccc2c(c1)cc(C)n2C`, in assay [1], the equilibrium dissociation constant (Kd) entry was “Nd(Insoluble)”. Further, the Activity in assay [2] was > 15%.

As for `COc1ccc2nc(NCc3cccnc3)sc2c1`, the dissociation constant (Kd) in assay [1] (read-out: Kd) was 2900 µM. Besides, the Activity in assay [2] is 1 to 15%.

Take `Oc1ncnc2scc(-c3ccccc3)c12`: the figures for the Activity in assay [3] and in assay [2] were 75% and > 15%, respectively. The dissociation constant (Kd) entry in assay [1] is listed as “Nd(Insoluble)”.

Turning to `CCN(CC)C(=O)c1sc2ccccc2c1Cl`, the dissociation constant Kd in assay [1] (read-out: Kd) worked out at 2500 µM. The Activity in assay [2] is > 15%.

Take `COC(=O)c1[nH]cc(-c2ccccc2F)c1N`: the equilibrium dissociation constant (Kd) result in assay [1] is “Nd(Insoluble)”. In assay [2], the Activity is 1 to 15%.

On to `CNCc1ccc(-c2cc(Cl)cc(Cl)c2)o1`, for which, in assay [1] (read-out: Kd), the dissociation constant Kd was determined as 1900 µM. Also, the Activity in assay [2] was > 15%.

As to `Cc1sc(N)nc1-c1ccc2c(c1)OCCO2`, the Kd in assay [1] (read-out: Kd) is 1200 µM. In addition, the Activity in assay [2] is > 15%.

Turning to `Cc1cc(Nc2ccc(N3CCCC3)cc2)ncn1`, the dissociation constant (Kd) in assay [1] (read-out: Kd) was determined as 3000 µM. Besides, the Activity in assay [2] was in the range of 1 to 15%.

For the compound `Cc1nc2cc(-c3ccccc3)ccc2o1`, the dissociation constant (Kd) entry in assay [1] is recorded as “Nd(Insoluble)”. In addition, in assay [2], the Activity lay in the range of 1 to 15%.

What is called Kd is the free concentration of one partner at which half of the binding sites on the other are occupied at equilibrium, for simple one-to-one binding.

The values above are taken from ChEMBL document CHEMBL4422676, “Fragment-based screening of programmed death ligand 1 (PD-L1)” (Bioorg Med Chem Lett, 2019).
